This note sets out measurements from patent US7947657B2, “Method for selective inhibition of human N-myc gene in N-myc expressing tumors through antisense and antigen peptido-nucleic acids (PNA)” (Universita Degli Studi Di Parma, priority 2003, dated 2011).

In data set [1] the test system is GI-LI-N cells. Nature of the data set: cell growth/proliferation test, cell counting and vitality by tryphan blue exclusion. The settings on record: for maximum inhibition effect on cell growth / inhibition effect in proliferation tests: GI-LI-N cells; for maximum inhibition effect on cell growth: 48 hours after treatment. It is filed as cell-based, human. How it is done:
(§1) In order to show the effectiveness of the peptide nucleic acids selected by the Applicant, the latter has carried out experimental tests by selecting four neuroblastoma cell lines: GI-LI-N, IMR-32 where N-myc gene is amplified and overexpressed; and GI-CA-N, GI-ME-N where N-myc gene is not amplified and is not expressed.
(§2) In threefold tests using plates with 24 wells, 1.0×10^5 cells have been introduced into the first wells with 0.5 ml of RPMI1640 containing 10% of FBS and 2 mM of […].
(§3) Cells have been incubated for 24 hours so as to let them adhere to the base of the wells.
(§4) Then, in order to assess the optimal concentration for cell growth inhibition, peptide nucleic acid has been added to GI-LI-N cells in concentration of 10, 20, 40 and 60 μM for 5′-UTR antisense PNA, whereas for sense and antisense anti-gene PNAs in concentrations of 1, 2, 5, 10 and 20 μM on GI-LI-N and IMR-32 cells-
(§5) Then, in order to assess the effects of the treatments, cells have been collected and counted 24, 48 and 72 hours after treatment.
(§6) Cells counting and vitality has been determined using colorimetric exclusion method (tryphan blue dye).

Data set [2] concerns GI-CA-N cells. The data set is described as above. It is filed as cell-based, human. The settings on record: same conditions. How it is done: as §1, §2, §3
In order to assess the specificity of sense and antisense anti-gene PNAs, GI-ME-N and GI-CA-N (in which N-myc gene is not amplified and is not […] for sense anti-gene PNA).
as §5, §6

Another data set has as its system N-MYC (protein). Nature of the data set: production of N-MYC protein by Western Blotting in GI-LI-N cell line. The class given is cell-based, human. The settings on record: for N-MYC protein level (Western Blotting): 20 μM, GI-LI-N. (In general: A western blot detects proteins with antibodies after separation by electrophoresis.)
In data set [3] the test system is GI-LI-N cells. Nature of the data set: flow cytometric cell cycle analysis on GI-LI-N cells. It is filed as cell-based, human. From the text: Moreover, the number of cells in sub-G1 phase with a hypodiploic DNA content (lower number of chromosomes than diploid DNA, i.e. 2n) increases from 3 to 22%.
(A flow cytometer gives signals particle by particle.)

For data set [4], the system named is GI-LI-N cells. The data set can be described thus: microscopic analysis of morphologic changes/differentiation of GI-LI-N cells. The settings on record: 20 μM. It is filed as cell-based, human. Here is the method: In order to assess the differentiation of GI-LI-N cells towards neuronal cells, said cell line has been treated with 20 μM antisense PNA, whereby morphologic changes have been detected by means of microscopic analysis.
Microscope assessment has been carried 36 and 48 hours after GI-LI-N cell growth in the presence or absence of 20 μM antisense PNA.

The subject of data set [5] is GI-CA-N cells. Nature of the data set: cell entry and intracellular localization by fluorescence microscopy of rhodamine-conjugated PNA. The class given is cell-based, human. Here is the method: (§7) In order to assess the ability of antisense PNAs and of anti-gene PNAs to get into human neuroblastoma cells and to analyze the subsequent intracellular localization, the Applicant has used four cell lines GI-LI-N and IMR-32, GI-CA-N and GI-ME-N- and has treated them for 30 minutes to 24 hours with 20 μM of antisense or sense PNA conjugated with rhodamine in 5′. Anti-gene PNAs were further conjugated with NLS in 3′.

The subject of data set [6] is GI-LI-N cells. Described as above. The class given is cell-based, human. How it is done: as §7
Data set [7] relates to IMR-32 cells. The data set can be described thus: cell growth/proliferation test, cell counting and vitality by tryphan blue exclusion. It is filed as cell-based, human. The settings on record: 10 μM. How it is done: as §1, §2, §3, §4, §5, §6
For the next data set, the system named is HT29 cells. Nature of the data set: cell growth/proliferation test in colon carcinoma cells. The class given is cell-based. The settings on record: 10 μM. How it is done:
(§8) The treatment with 10 μM sense anti-gene PNA has also been carried out in HT29 cells (deriving from colon carcinoma) and in HeLa cells (deriving from cervical carcinoma) expressing N-myc gene.

Another data set has as its system HeLa cells. The data set can be described thus: cell growth/proliferation test in cervical carcinoma cells. To be noted: 10 μM. The class given is cell-based. How it is done:
as §8

The subject of the next data set is N-MYC protein. The data set can be described thus: production of N-MYC protein by Western Blotting in IMR-32 cell line. It is filed as cell-based, human. To be noted: 10 μM. How it is done:
In further tests on sense anti-gene PNA, the production of N-MYC protein was assessed by using Western Blotting in IMR-32 cell line after 3 hours of treatment with 10 μM sense anti-gene PNA. A reduction of 50% of protein level has been detected after 3 hours of treatment with sense anti-gene PNA.

The test system of data set [8] is IMR-32 cells. The data set can be described thus: cytofluorimetric cell cycle analysis in IMR-32 cells. The settings on record: 10 μM; for cells in G2/M / cells in Go/G1 / cells in S phase: IMR-32. The class given is cell-based, human. Here is the method: A cytofluorimetric analysis in IMR-32 cells 24 and 48 hours after the treatment with sense anti-gene PNA in a concentration of 10 μM, induced a cell accumulation in Go/G1 (from 39% to 53% after 24 hours; from 31% to 53% after 48 hours) and decrease in G2/M (from 17% to 6% after 24 hours; from 25% to 9% after 48 hours) and S phase (from 45 to 41% after 24 hours; from 44% to 39% after 48 hours).

Another data set deals with GI-ME-N cells. Nature of the data set: cell growth/proliferation test, cell counting and vitality by tryphan blue exclusion. The class given is cell-based, human. The settings on record: 10 μM; GI-ME-N cells (N-myc not amplified, not expressed); same conditions. Here is the method: as §1, §2, §3
In order to assess the specificity of sense and antisense anti-gene PNAs, GI-ME-N and GI-CA-N (in which N-myc gene is not amplified and is not expressed) have been treated with sense and antisense anti-gene PNA in a concentration of […] (optimal concentration selected for sense anti-gene PNA).
as §5, §6

The next data set concerns N-myc transcript. Nature of the data set: production of N-myc transcript by PCR of cDNA from GI-LI-N cells. The settings on record: 10 μM, 30 PCR cycles, easily detected in untreated cells. It is filed as cell-based, human. How it is done: The production of N-myc transcript was assessed before and after […] treatment with 10 μM sense anti-gene PNA by amplification in PCR of cDNA obtained from 250 ng of mRNA of GI-LI-N cells. The following primers have been used: sense SEQ ID NO: 5 (ExonE 2, by 2366); antisense SEQ ID NO: 6(Exon 3, by 5095) (Genbank M13241). PCR has been carried out with 30 reaction cycles.

Where [9] appears, read: 10 μM, cell line not restated (GI-LI-N).
Where [10] appears, read: same test conditions used for sense anti-gene PNA.

Entries after “also recorded” stand apart in the source; their conditions may differ.

As for “antisense PNA: antisense peptide nucleic acid (bp 135-150, SEQ ID NO: 1) complementary to one sequence in 5′-UTR region of N-myc gene (antisense TCCACCCAGCGCGTCC; all peptide nucleic acid (PNA))”, the “maximum inhibition effect on cell growth” value with GI-LI-N cells [1] (20 μM) stood at 70%. The “inhibition effect on cell growth” value in the data set on GI-CA-N cells [2] (20 μM, GI-CA-N cells (N-myc not amplified)) is given as “do not show any inhibition effect”. Further, the “N-MYC protein level (Western Blotting)” value is on record as “evident reduction” with N-MYC (protein) (after 24 hours) and “reduction decreases” with N-MYC (protein) (after 72 hours). In addition, the “cells in sub-G1 phase with hypodiploic DNA content” value with GI-LI-N cells [3] (20 μM, GI-LI-N, 36 hours after treatment, from 3 untreated) is listed as 22%. Moreover, in the data set with GI-LI-N cells [3] (20 μM, GI-LI-N, 36 hours after treatment, from 13 untreated), the “cells in G2” value is given as 6%. Further, the “cells in G0/G1” value in the data set on GI-LI-N cells [3] (20 μM, GI-LI-N, 36 hours after treatment, from 34% untreated) worked out at 57%. Further, the “cells in S phase” value in the data set with GI-LI-N cells [3] (20 μM, GI-LI-N, 36 hours after treatment, from 53% untreated) was 37%. For the same substance, the “morphologic changes (microscope)” value with GI-LI-N cells [4] (after 36 hours) is “less uniform distribution than control cells”; in the data set with GI-LI-N cells [4] (after 48 hours) it was “tend to form small cell aggregates”. Also, the “time after treatment at which intracytoplasmatic fluorescence can already be measured” value in the data set with GI-CA-N cells [5] (20 μM PNA conjugated with rhodamine in 5′) was at most 30 min; with GI-LI-N cells [6] (20 μM PNA conjugated with rhodamine in 5′, GI-LI-N), at most 30 min. The “time to maximum fluorescence intensity” value with GI-CA-N cells [5] (20 μM rhodamine-conjugated PNA, level then constant for 24 hours) was 6 h; in the data set with GI-LI-N cells [6] (20 μM rhodamine-conjugated PNA, GI-LI-N, level then constant for 24 hours), 6 h. For the same substance, the “intracellular localization of fluorescence” value in the data set on GI-LI-N cells [6] (20 μM rhodamine-conjugated PNA, cell lines of b80) is “High intracytoplasmatic values”.
Take “mutated antisense PNA: mutated PNA containing the substitution of three bases (SEQ ID NO: 2), specificity control for antisense PNA (CCCACTCAGCGCGCCC; all peptide nucleic acid (PNA))”: in the data set on GI-LI-N cells [1] (setting [9]), the “inhibition effect in cell vitality” value is listed as “no inhibition effect”. The “inhibition effect in proliferation tests” value in the data set with GI-LI-N cells [1] (20 μM) was “have not shown any inhibition effect”. Also, the “inhibition effect in the amount of N-MYC protein” value with N-MYC (protein) (setting [9]) is “no inhibition effect”. Also, the “inhibition effect in cell cycle” value in the data set on GI-LI-N cells [3] (setting [9]) was “no inhibition effect”.
In the case of “antisense anti-gene PNA: antisense anti-gene PNA (SEQ ID NO: 4) complementary to a sequence of exon 2 N-myc gene, NLS-conjugated (antisense AGATCATGCCCGGCAT; all peptide nucleic acid (PNA); SV40 nuclear localization signal peptide conjugated at 3' end, further chemistry not fully specified)”, the “inhibition effect in proliferation tests” value with GI-LI-N cells [1] (10 μM) and with IMR-32 cells [7] (IMR-32 cells) was “have not shown any inhibition effect; also recorded: do not show any inhibition effect” each time.
Regarding “mutated anti-gene PNA: mutated PNA containing the substitution of three bases (SEQ ID NO: 7), specificity control for sense anti-gene PNA (GTGCCGAGCATGGTCT; all peptide nucleic acid (PNA))”, in the data set on IMR-32 cells [7] (setting [10]), the “inhibition effect in cell vitality” value is “No inhibition effect”. Besides, the “inhibition effect in proliferation tests” value in the data set on HT29 cells and in the data set on HeLa cells was “have not shown any inhibition effect” in each case. Besides, the “inhibition effect in the amount of N-MYC protein” value in the data set on N-MYC protein (setting [10]) is reported as “No inhibition effect”. In addition, in the data set on IMR-32 cells [8] (setting [10]), the “inhibition effect in cell cycle” value is on record as “No inhibition effect”.
On to “sense anti-gene PNA: sense anti-gene PNA (SEQ ID NO: 3) complementary to a sequence of exon 2 N-myc gene, NLS-conjugated (ATGCCGGGCATGATCT; all peptide nucleic acid (PNA); SV40 nuclear localization signal peptide conjugated at 3' end, further chemistry not fully specified)”, for which the “maximum inhibition effect on cell growth” value in the data set with GI-LI-N cells [1] (10 μM) was 90%; in the data set on IMR-32 cells [7] (IMR-32 cells, 48 hours after treatment), 80%; in the data set with HT29 cells (48 hours after treatment), 70%; in the data set on HeLa cells (24 hours after treatment) it was 70%. The “inhibition effect on cell growth” value in the data set with GI-CA-N cells [2] (10 μM, GI-CA-N cells (N-myc not amplified, not expressed)) is reported as “do not show any inhibition effect”; in the data set with GI-ME-N cells, “do not show any inhibition effect”. Also, in the data set with N-MYC protein (IMR-32, after 3 hours of treatment), the “reduction of N-MYC protein level (Western Blotting)” value amounted to 50%. The “cells in G2/M” value with IMR-32 cells [8] (after 24 hours, from 17% untreated) is listed as 6%; in the data set with IMR-32 cells [8] (after 48 hours, from 25% untreated) it was 9%. In addition, the “cells in Go/G1” value turned out to be 53% with IMR-32 cells [8] (after 24 hours, from 39% untreated) and 53% with IMR-32 cells [8] (after 48 hours, from 31% untreated). Moreover, the “cells in S phase” value is listed as 41% in the data set on IMR-32 cells [8] (after 24 hours, from 45 untreated) and 39% in the data set with IMR-32 cells [8] (after 48 hours, from 44% untreated). For the same substance, the “PCR product of N-myc transcript” value in the data set with N-myc transcript was “cannot be detected”.
